Assay results: patent publication US20160120848A1, “SPECIFIC CANCER TREATMENT REGIMES WITH GANETESPIB” (SYNTA PHARMACEUTICALS CORP., priority 2013, published 2016)

Assays:
[1] = tested on: complex between Hsp90 and mutant p53; assay: Preclinical study of Hsp90 inhibition by ganetespib in mutant p53 cells; type: cell-based
[2] = tested on: inflammatory breast cancer; assay: Phase 1b study of ganetespib with doxorubicin, cyclophosphamide and docetaxel; type: in vivo, patients; settings: combination with doxorubicin
Text: This is an open-label, multicenter, Phase 1b, dose-escalation study in patients with locally advanced and inflammatory breast cancer. The purpose of the study is to test the safety and tolerability of ganetespib in patients with operable breast cancer.
Eligible patients must be treatment naïve with histologic confirmation of breast adenocarcinoma, and a tumor that is readily accessible for sequential biopsy. Before the study, patients undergo a complete physical examination, laboratory investigations, chest x-ray, a mammogram and a breast ultrasonography and other imaging studies (e.g., MRI, PET-CT, or mammogram) to determine the local extent of the disease. Abdominal CT scan is performed to exclude metastatic disease. The methods used to document baseline status must be consistently used throughout the study. Prior to entering the study, HER2 status of the tumor is determined by the local lab.
A pharmacodynamics phase consists of ganetespib single agent given at a dose of 150 mg/m^2 twice for 1 week prior to start of dose escalation phase (approximately on Days −7 and −4). A pre-dose tumor biopsy is obtained within 15+/−3 days prior to initiating treatment with ganetespib. A post-treatment […] is obtained on Day −4, to evaluate the effects of ganetespib on downstream effectors regulating tumor proliferation and survival, as well as potential effects on HIF1-transcriptional activity. […]

[3] = tested on: non-small cell lung cancer; assay: Phase I study of ganetespib with cisplatin/pemetrexed, carboplatin/pemetrexed or carboplatin/paclitaxel; type: in vivo, patients; settings: combination with cisplatin/pemetrexed
Text: This is a Phase 1, open-label, dose-escalation study in patients with advanced NSCLC with adenocarcinoma histology.
Cohort 1: patients treated with ganetespib, cisplatin and pemetrexed
Cohort 2: patients treated with ganetespib, carboplatin and pemetrexed
Cohort 3: patients treated with ganetespib, carboplatin and paclitaxel
In Cohort 1, one treatment cycle consists of treatment with ganetespib, cisplatin and pemetrexed on Day 1, and ganetespib on Day 15
In Cohort 2, one treatment cycle consists of treatment with ganetespib, carboplatin and pemetrexed on Day 1, and ganetespib on Day 15
In Cohort 3, one treatment cycle consists of treatment with ganetespib, carboplatin and paclitaxel on Day 1, and ganetespib on Day 15
Treatment cycles are repeated every 3 weeks. The total planned number of combination cycles is 4. Ganetespib is administered on Days 1 and 15 of each cycle; cisplatin and pemetrexed, carboplatin and pemetrexed, or carboplatin and paclitaxel are administered on Day 1 of each cycle. Each agent is administered as a separate infusion (see Dose-Escalation Table below). […]
Duration of treatment: the duration of the combination treatment for each regimen is 4 treatment cycles, if tolerated. Patients who complete 4 combination-treatment cycles are evaluated for tumor disease response, general performance status and toxicities. […]

`CC(C)c1cc(-c2n[nH]c(=O)n2-c2ccc3c(ccn3C)c2)c(O)cc1O` [ganetespib] was tested, and the anti-cancer activity [1] was “potent anti-cancer activity”, the “anti-cancer activity in cells with mutant p53 compared with other cells” value [1] was “substantially stronger in cells with mutant p53” and the “effect on complex between Hsp90 and mutant p53” value [1] was “destroyed the complex between Hsp90 and mutant p53”. The “effect on mutant p53 protein” value [1] was “inducing the degradation of mutant p53”, the “sensitization of mutant p53 cancer cells to treatment with chemotherapies” value ([1]; inhibition of Hsp90) was “strongly sensitize” and the efficacy [2] was “efficacious”. For the same molecule, the safety profile [2] was “good safety profile”, the efficacy [3] was “efficacious” and the safety profile [3] was “good safety profile”.
